Data taken from patent US9850287B2, “Means and methods for breaking noncovalent binding interactions between molecules” (Het Nederlands Kanker Instituut, priority 2005, dated 2017).

Experiments:
HLA-A2.1 = target: T1, HLA-A2.1 (Homo sapiens, UniProt P04439, D140Y/D185E/D98H/E176V/E277Q/G131W/G231S/I119V/I121R/I166T/I218V/N151K/N90K/P208A/P217A/Q86G/Q94H/R138H/R169H); assay type: binding
T1 construct: made in house

[1] = test system: CD8+ lymphocytes in peripheral blood mononuclear cells of a CMV-positive donor; assay type: cell-based

| Substance | recovery of UV-sensitive MHC multimer upon addition of peptide (HLA-A2.1) | staining of CD8+ T-cells by exchange-generated MHC tetramers [1] |
| --- | --- | --- |
| GP100 (614-622): HLA-A3-binding peptide, control not expected to interact with HLA-A2.1 (LIYRRRLMK) | does not lead to a substantial increase in the recovery |  |
| CMV pp65 495-503: CMV pp65 495-503 epitope peptide (NLVPMVATV; UniProt P06725 495-503, looked up, fragment) |  | detect CMV-specific T-cells at an equal frequency and with similar intensity as conventional CMV pp65 495-503-specific MHC tetramers |
| HY 311-319: HLA-A2.1-binding peptide (FIDSYICQV) | highly increased recovery | do not show measurable binding |
| MART I 26-35 (A2L mutant) |  | do not show measurable binding |
